# Data: US8669205B2, “Composition and method for controlling plant diseases” (Sumitomo Chemical Company, Limited, priority 2009, dated 2014)
# How the values were obtained:
# [1] = test system: Rhizoctonia damping-off pathogen (Rhizoctonial solani); test: Test Example 1: cucumber seed treatment, Rhizoctonia damping-off control; type: in vivo; settings: cucumber (Sagamihanjiro) seed treatment, 9 days
# Experimental: A DMSO solution of the compound I and a DMSO solution of tolclofos-methyl were respectively prepared. These solutions were mixed to prepare a DMSO solution containing predetermined concentrations of the compound I and tolclofos-methyl. Ten (10) μL of the DMSO solution and 1 g of cucumber (Sagamihanjiro) seeds were mixed by shaking in a 15-ml conical tube and then allowed to stand overnight to prepare treated seeds. A plastic pot was filled with sandy soil and the treated seeds were sown on it and then covered with sandy soil which had been mixed with a bran culture of Rhizoctonia damping-off pathogen (Rhizoctonial solani). The sown seeds were watered and then cultured in a greenhouse at 20 to 24° C. for 9 days. The occurrence of Rhizoctonia damping-off diseases was checked and the incidence of disease was calculated by Equation 1.
# For comparison, a DMSO solution containing a predetermined concentration of tolclofos-methyl was prepared and subjected to the same test and then the incidence of disease was determined.
# (§1) In order to calculate a control value, the same test was conducted in which the plants had been treated with none of the test compounds and the incidence of disease was determined.
# (§2) The control value was calculated by the Equation 2 based on the incidence of disease thus determined. […]
# [2] = test system: Rhizoctonia damping-off pathogen (Rhizoctonial solani); test: Test Example 2: spray to the foot of rice, Rhizoctonia damping-off control; type: in vivo; settings: rice (Nipponbare), tolclofos-methyl 50 alone, 5 days
# Experimental: A plastic pot was filled with sandy soil and seeds of rice (Nipponbare) were sown on it, followed by cultivation in a greenhouse for 5 weeks. A wettable powder of the compound I was prepared by mixing 10 parts of the compound I, 35 parts of a mixture of white carbon and a polyoxyethylene alkyl ether sulfate ammonium salt (weight ratio of 1:1) and 55 parts of water, followed by grinding the mixture. A wettable powder of tolclofos-methyl was prepared by mixing 10 parts of […], 35 parts of a mixture of white carbon and a polyoxyethylene alkyl ether sulfate ammonium salt (weight ratio of 1:1) and 55 parts of water, followed by grinding the mixture. Each of the wettable powder thus prepared was diluted with water, respectively, followed by mixing together to prepare a mixed solution containing predetermined concentrations of the compound I and tolclofos-methyl. The mixed solution was sprayed to the foot of the rice. […] The occurrence of Rhizoctonia damping-off diseases was checked and the incidence of disease was calculated by Equation 3. […]
# as §1, §2
structure (smiles),measurement,setting,value
COP(=S)(OC)Oc1c(Cl)cc(C)cc1Cl [Tolclofos-methyl],Control value,[1]; tolclofos-methyl 10 g/100 kg seeds alone,38
same,Control value,[1]; tolclofos-methyl 40 g/100 kg seeds alone,75
same,Control value,[2],58
